Reference: US11466016B2, “Pharmaceutical compounds” (priority 2018, dated 2022)
Counter-ions that a name gives are not always drawn. Like-named read-outs stand apart in the source and are kept apart here.

Target: SHP2 (Homo sapiens (Human), UniProt Q06124)
Assay: SHP2 Biochemical Assay (DiFMUP conversion, pIRS1 activating peptide)
Description: SHP2 activity was monitored by measuring the conversion of the surrogate substrate 6,8-difluoromethylumbelliferyl phosphate (DiFMUP) to the fluorescent product, 6,8-difluoromethylumbelliferone (DiFMU).
SHP2 was pre-incubated with test compounds and the activating peptide pIRS1 (H2N-LN(pY)IDLDLV-(PEG)8-LST(pY)ASINFQK-amide) for 30 min, prior to addition of the […] (DiFMUP), (Thermo Fisher D6567). […] Rates of reaction were then measured over 30 min by monitoring fluorescence on a BMG Pherastar reader at excitation 360 nm/emission 450 nm. IC50 values were calculated from the normalized dose-response plots using four parameter logistic curve fit.

[1] = DiFMUP substrate, 0.25 μM pIRS1 peptide, 30 min pre-incubation, average where more than one data point, read-out: SHP2 (IC50)

2-(5-{3-[endo-3-amino-8-azabicyclo[3.2.1]octan-8-yl]-5H-pyrrolo[2,3-b]pyrazin-7-yl}-3,4-dichloro-2H-indazol-2-yl)ethan-1-ol [Example 36]
IC50 [1]: 6 nM

Cn1cc2c(Cl)c(-c3c[nH]c4nc(N5[C@@H]6CC[C@H]5[C@H](F)[C@H](N)C6)cnc34)ccc2n1 (racemic) [Example 12, rac-(1S,2R,3R,5R)-8-[7-(4-chloro-2-methyl-2H-indazol-5-yl)-5H-pyrrolo[2,3-b]pyrazin-3-yl]-2-fluoro-8-azabicyclo[3.2.1]octan-3-amine]
IC50: 15 nM

Cn1cc2c(Cl)c(-c3n[nH]c4nc(N5[C@H]6CC[C@@H]5[C@@H](F)[C@@H](N)C6)c(CO)nc34)ccc2n1 (racemic) [Example 78, rac-{6-[(1R,2S,3S,5S)-3-amino-2-fluoro-8-azabicyclo[3.2.1]octan-8-yl]-3-(4-chloro-2-methyl-2H-indazol-5-yl)-1H-pyrazolo[3,4-b]pyrazin-5-yl}methanol]
IC50: 15 nM

CN(C)c1nc2ccc(-c3n[nH]c4nc(N5C6CCC5[C@@H](F)[C@@H](N)C6)c(CO)nc34)c(Cl)c2s1 (stereo in doubt) [Example 123, {6-[(1S,2S,3S,5R)-3-amino-2-fluoro-8-azabicyclo[3.2.1]octan-8-yl]-3-[7-chloro-2-(dimethylamino)-1,3-benzothiazol-6-yl]-1H-pyrazolo[3,4-b]pyrazin-5-yl}methanol]
IC50 [1]: 9.7 nM

Cc1nc2ccc(-c3n[nH]c4nc(N5C6CCC5[C@@H](F)[C@@H](N)C6)c(C)nc34)c(Cl)c2s1 (stereo in doubt) [Example 146, (1S,2S,3S,5R)-8-[3-(7-chloro-2-methyl-1,3-benzothiazol-6-yl)-5-methyl-1H-pyrazolo[3,4-b]pyrazin-6-yl]-2-fluoro-8-azabicyclo[3.2.1]octan-3-amine]
IC50 [1]: 7.4 nM

Cn1cc2c(Cl)c(-c3c[nH]c4nc(N5[C@@H]6CC[C@H]5C[C@H](CN)C6)cnc34)ccc2n1 [Example 1, 1-[exo-8-[7-(4-chloro-2-methyl-2-indazol-5-yl)-5H-pyrrolo[2,3-b]pyrazin-3-yl]-8-azabicyclo[3.2.1]octan-3-yl]methanamine]
IC50 [1]: 13 nM

Cn1cc2c(Cl)c(-c3c[nH]c4nc(N5[C@@H]6CC[C@H]5C[C@H](N)C6)cnc34)ccc2n1 [Example 2, exo-8-[7-(4-chloro-2-methyl-2H-indazol-5-yl)-5H-pyrrolo[2,3-b]pyrazin-3-yl]-8-azabicyclo[3.2.1]octan-3-amine]
IC50 [1]: 8.1 nM

Cn1cc2c(Cl)c(-c3c[nH]c4nc(N5[C@@H]6CC[C@H]5C[C@@H](N)C6)cnc34)ccc2n1 [Example 3, endo-8-[7-(4-chloro-2-methyl-2H-indazol-5-yl)-5H-pyrrolo[2,3-b]pyrazin-3-yl]-8-azabicyclo[3.2.1]octan-3-amine]
IC50 [1]: 10 nM

Cn1cc2c(Cl)c(-c3c[nH]c4nc(N5CCC(N)CC5)cnc34)ccc2n1 [Example 4, 1-[7-(4-chloro-2-methyl-2H-indazol-5-yl)-5H-pyrrolo[2,3-b]pyrazin-3-yl]piperidin-4-amine]
IC50 [1]: 16 nM

Cn1cc2c(Cl)c(-c3c[nH]c4nc(N5CCC(C)(N)CC5)cnc34)ccc2n1 [Example 5, 1-[7-(4-chloro-2-methyl-2H-indazol-5-yl)-5H-pyrrolo[2,3-b]pyrazin-3-yl]-4-methylpiperidin-4-amine]
IC50 [1]: 18 nM

Cn1cc2c(Cl)c(-c3c[nH]c4nc(N5[C@@H]6CCC[C@H]5C[C@@H](N)C6)cnc34)ccc2n1 [Example 6, endo-9-[7-(4-chloro-2-methyl-2H-indazol-5-yl)-5H-pyrrolo[2,3-b]pyrazin-3-yl]-9-azabicyclo[3.3.1]nonan-3-amine]
IC50 [1]: 9 nM

Cn1cc2c(Cl)c(-c3c[nH]c4nc(N5CCC(N)(CO)CC5)cnc34)ccc2n1 [Example 7, {4-amino-1-[7-(4-chloro-2-methyl-2H-indazol-5-yl)-5H-pyrrolo[2,3-6]pyrazin-3-yl]piperidin-4-yl}methanol]
IC50 [1]: 23 nM

Cn1cc2c(Cl)c(-c3c[nH]c4nc(N5[C@@H]6CC[C@H]5C[C@@](C)(N)C6)cnc34)ccc2n1 [Example 8, endo-8-[7-(4-chloro-2-methyl-2H-indazol-5-yl)-5H-pyrrolo[2,3-b]pyrazin-3-yl]-3-methyl-8-azabicyclo[3.2.1]octan-3-amine, methanesulfonic acid salt]
IC50 [1]: 17 nM

Cn1cc2c(Cl)c(-c3c[nH]c4nc(N5C6CCC5CNC6)cnc34)ccc2n1 [Example 9, 4-chloro-5-(3-{3,8-diazabicyclo[3.2.1]octan-8-yl}-5H-pyrrolo[2,3-b]pyrazin-7-yl)-2-methyl-2H-indazole]
IC50 [1]: 26 nM

Cn1cc2c(Cl)c(-c3c[nH]c4nc(N5CCC6(CC5)CNC6)cnc34)ccc2n1 [Example 10, 7-[7-(4-chloro-2-methyl-2H-indazol-5-yl)-5H-pyrrolo[2,3-b]pyrazin-3-yl]-2,7-diazaspiro[3.5]nonane]
IC50 [1]: 14 nM

Cc1nc2c(-c3ccc4nn(C)cc4c3Cl)c[nH]c2nc1N1CCC(C)(CN)CC1 [Example 11, 1-{1-[7-(4-chloro-2-methyl-2H-indazol-5-yl)-2-methyl-5H-pyrrolo[2,3-b]pyrazin-3-yl]-4-methylpiperidin-4-yl]methanamine, dihydrochloride salt]
IC50 [1]: 43 nM

N[C@H]1C[C@H]2CC[C@@H](C1)N2c1cnc2c(-c3ccc4ncsc4c3Cl)c[nH]c2n1 [Example 13, endo-8-[7-(7-chloro-1,3-benzothiazol-6-yl)-5H-pyrrolo[2,3-b]pyrazin-3-yl]-8-azabicyclo[3.2.1]octan-3-amine, methanesulfonic acid salt]
IC50 [1]: 6.2 nM

Cc1nc2c(-c3ccc4nn(C)cc4c3Cl)c[nH]c2nc1N1CCC(C)(N)CC1 [Example 14, 1-[7-(4-chloro-2-methyl-2H-indazol-5-yl)-2-methyl-5H-pyrrolo[2,3-b]pyrazin-3-yl]-4-methylpiperidin-4-amine]
IC50 [1]: 89 nM

Cc1nc2ccc(-c3c[nH]c4nc(N5[C@@H]6CC[C@H]5C[C@@H](N)C6)cnc34)c(Cl)c2s1 [Example 15, endo-8-[7-(7-chloro-2-methyl-1,3-benzothiazol-6-yl)-5H-pyrrolo[2,3-b]pyrazin-3-yl]-8-azabicyclo[3.2.1]octan-3-amine, methanesulfonic acid salt]
IC50 [1]: 5.9 nM

Cn1cc2c(Cl)c(-c3c[nH]c4nc(N5CCC6(CCN6)CC5)cnc34)ccc2n1 [Example 16, 7-[7-(4-chloro-2-methyl-2H-indazol-5-yl)-5H-pyrrolo[2,3-b]pyrazin-3-yl]-1,7-diazaspiro[3.5]nonane]
IC50 [1]: 24 nM

Cc1nc2c(-c3ccc4nn(C)cc4c3Cl)c[nH]c2nc1N1[C@@H]2CC[C@H]1C[C@@H](N)C2 [Example 17, endo-8-[7-(4-chloro-2-methyl-2H-indazol-5-yl)-2-methyl-5H-pyrrolo[2,3-b]pyrazin-3-yl]-8-azabicyclo[3.2.1]octan-3-amine]
IC50 [1]: 20 nM

CN(C)c1nc2ccc(-c3c[nH]c4nc(N5[C@@H]6CC[C@H]5C[C@@H](N)C6)cnc34)c(Cl)c2s1 [Example 18, 6-{3-[endo-3-amino-8-azabicyclo[3.2.1]octan-8-yl]-5H-pyrrolo[2,3-b]pyrazin-7-yl}-7-chloro-N,N-dimethyl-1,3-benzothiazol-2-amine, hydrochloride salt]
IC50 [1]: 13 nM

N[C@H]1C[C@H]2CC[C@@H](C1)N2c1cnc2c(-c3ccc4oc(=O)[nH]c4c3Cl)c[nH]c2n1 [Example 19, 5-{3-[endo-3-amino-8-azabicyclo[3.2.1]octan-8-yl]-5H-pyrrolo[2,3-b]pyrazin-7-yl}-4-chloro-2,3-dihydro-1,3-benzoxazol-2-one, hydrochloride salt]
IC50 [1]: 47 nM

Cc1nc2c(-c3ccc4nn(C)cc4c3Cl)c[nH]c2nc1N1[C@@H]2CC[C@H]1C[C@H](N)C2 [Example 20, exo-8-[7-(4-chloro-2-methyl-2H-indazol-5-yl)-2-methyl-5H-pyrrolo[2,3-b]pyrazin-3-yl]-8-azabicyclo[3.2.1]octan-3-amine]
IC50 [1]: 10 nM

Cc1nc2ccc(-c3c[nH]c4nc(N5[C@@H]6CC[C@H]5C[C@@H](N)C6)cnc34)c(Cl)c2c(=O)[nH]1 [Example 21, 6-{3-[endo-3-amino-8-azabicyclo[3.2.1]octan-8-yl]-5H-pyrrolo[2,3-b]pyrazin-7-yl}-5-chloro-2-methyl-3,4-dihydroquinazolin-4-one]
IC50 [1]: 11 nM

CN(C)c1ccc2ccc(-c3c[nH]c4nc(N5[C@@H]6CC[C@H]5C[C@@H](N)C6)cnc34)c(Cl)c2n1 [Example 22, 7-{3-[endo-3-amino-8-azabicyclo[3.2.1]octan-8-yl]-5H-pyrrolo[2,3-b]pyrazin-7-yl}-8-chloro-N,N-dimethylquinolin-2-amine, hydrochloride salt]
IC50 [1]: 26 nM

N[C@H]1C[C@H]2CC[C@@H](C1)N2c1cnc2c(-c3ccc4[nH]c(=O)sc4c3Cl)c[nH]c2n1 [Example 23, 6-{3-[endo-3-amino-8-azabicyclo[3.2.1]octan-8-yl]-5H-pyrrolo[2,3-b]pyrazin-7-yl}-7-chloro-2,3-dihydro-1,3-benzothiazol-2-one, hydrochloride salt]
IC50 [1]: 5.2 nM

Cn1nc2ccc(-c3c[nH]c4nc(N5[C@@H]6CC[C@H]5C[C@@H](N)C6)cnc34)c(Cl)c2c1Cl [Example 24, endo-8-[7-(3,4-dichloro-2-methyl-2H-indazol-5-yl)-5H-pyrrolo[2,3-b]pyrazin-3-yl]-8-azabicyclo[3.2.1]octan-3-amine, methanesulfonic acid salt]
IC50 [1]: 4.3 nM

Cn1cc2c(Cl)c(-c3c[nH]c4nc(N5CCC6(CNC6)C(F)(F)C5)cnc34)ccc2n1 [Example 25, 7-[7-(4-chloro-2-methyl-2H-indazol-5-yl)-5H-pyrrolo[2,3-b]pyrazin-3-yl]-5,5-difluoro-2,7-diazaspiro[3.5]nonane, hydrochloride salt]
IC50 [1]: 52 nM
